Test results from ChEMBL document CHEMBL5257025, “Artemisinin-Derived Dimers: Potent Antimalarial and Anticancer Agents” (J Med Chem, 2016).

Assays:
[1] = system: Plasmodium falciparum; assay: microbe, parasite or virus in culture; conditions: K1
Description: Antiplasmodial activity against Plasmodium falciparum K1 assessed as inhibition of parasitic growth

[2] = system: EL4; assay: Antiproliferative activity against mouse EL4 cells assessed as cell growth inhibition incubated for 72 hrs by MTT assay; type: functional, cell-based; conditions: EL4, 72 h
[3] = system: HT-29; assay: cells; conditions: Homo sapiens, HT-29, 72 h
[4] = system: BeWo; assay: Antiproliferative activity against human BeWo cells assessed as reduction in cell viability after 72 hrs by MTT assay; type: functional, cell-based
[5] = system: MCF7; assay: Antiproliferative activity against human MCF7 cells assessed as reduction in cell viability measured after 48 hrs by SRB assay; type: functional, cell-based; conditions: MCF7, 48 h
[6] = system: P388; assay: Antiproliferative activity against mouse P388 cells assessed as cell growth inhibition incubated for 72 hrs by MTT assay; type: functional, cell-based; conditions: P388, 72 h
[7] = system: Plasmodium falciparum; assay: Antimalarial activity against Plasmodium falciparum HB3 assessed as inhibition of malarial growth; type: functional, organism-based
[8] = system: Plasmodium falciparum; assay: Antimalarial activity against Plasmodium falciparum K1 assessed as inhibition of malarial growth; type: functional, organism-based

Row | SMILES | IC50 [1] [nM] | IC50 [7] [nM] | IC50 [8] [nM] | other results
1 | C[C@@H]1CC[C@H]2[C@@H](C)C(CSCCCSCC3O[C@H]4O[C@@]5(C)CC[C@H]6[C@H](C)CC[C@@H]([C@H]3C)[C@@]46OO5)O[C@H]3O[C@@]4(C)CC[C@@H]1[C@]32OO4 (stereo partly specified) | 13 | – | – | –
2 | C[C@H]1[C@@H](CCNC(=O)CC[C@H]2O[C@H]3O[C@@]4(C)CC[C@H]5[C@H](C)CC[C@@H]([C@H]2C)[C@@]35OO4)O[C@H]2O[C@@]3(C)CC[C@H]4[C@H](C)CC[C@@H]1[C@@]24OO3 | – | – | – | IC50 [2]: 10100 nM; IC50 [3]: 1100 nM; IC50 [4]: 12100 nM; IC50 [5]: 8 nM; IC50 [6]: 16800 nM
3 | C[C@@H]1CC[C@H]2[C@@H](C)C(CCS(=O)(=O)CCCS(=O)(=O)CCC3O[C@@H]4O[C@]5(C)CC[C@@H]6[C@@H](C)CC[C@H]([C@@H]3C)[C@]46OO5)O[C@H]3O[C@@]4(C)CC[C@@H]1[C@]32OO4 (stereo partly specified) | – | – | – | IC50 [2]: 13100 nM; IC50 [3]: 500 nM; IC50 [4]: 11200 nM; IC50 [5]: 7360 nM; IC50 [6]: 11000 nM
4 | C[C@@H]1CC[C@H]2[C@@H](C)C(CCOC(=O)CCC(=O)OCCC3O[C@H]4O[C@@]5(C)CC[C@H]6[C@H](C)CC[C@@H]([C@H]3C)[C@@]46OO5)O[C@H]3O[C@@]4(C)CC[C@@H]1[C@]32OO4 (stereo partly specified) | – | 1.4 | 1.8 | –
5 | C[C@@H]1CC[C@H]2[C@@H](C)C(CSCCCCSC3O[C@H]4O[C@@]5(C)CC[C@H]6[C@H](C)CC[C@@H]([C@H]3C)[C@@]46OO5)O[C@H]3O[C@@]4(C)CC[C@@H]1[C@]32OO4 (stereo partly specified) | 5.7 | – | – | –
6 | C[C@@H]1CC[C@H]2[C@@H](C)C(CCOC(=O)c3ccccc3C(=O)OCCC3O[C@H]4O[C@@]5(C)CC[C@H]6[C@H](C)CC[C@@H]([C@H]3C)[C@@]46OO5)O[C@H]3O[C@@]4(C)CC[C@@H]1[C@]32OO4 (stereo partly specified) | – | 1.6 | 2.6 | –
7 | C[C@@H]1CC[C@H]2[C@@H](C)C(CCOCc3ccccc3COCCC3O[C@H]4O[C@@]5(C)CC[C@H]6[C@H](C)CC[C@@H]([C@H]3C)[C@@]46OO5)O[C@H]3O[C@@]4(C)CC[C@@H]1[C@]32OO4 (stereo partly specified) | – | 1.3 | 2.9 | –
8 | C[C@@H]1CC[C@H]2[C@@H](C)C(CSCCSCC3O[C@H]4O[C@@]5(C)CC[C@H]6[C@H](C)CC[C@@H]([C@H]3C)[C@@]46OO5)O[C@H]3O[C@@]4(C)CC[C@@H]1[C@]32OO4 (stereo partly specified) | 7.4 | – | – | –
9 | C[C@@H]1CC[C@H]2[C@@H](C)C(CCOC(=O)c3ccc(C(=O)OCCC4O[C@H]5O[C@@]6(C)CC[C@H]7[C@H](C)CC[C@@H]([C@H]4C)[C@@]57OO6)cc3)O[C@H]3O[C@@]4(C)CC[C@@H]1[C@]32OO4 (stereo partly specified) | 4.6 | – | – | –
10 | C[C@@H]1CC[C@H]2[C@@H](C)C(CCOCc3cccc(COCCC4O[C@H]5O[C@@]6(C)CC[C@H]7[C@H](C)CC[C@@H]([C@H]4C)[C@@]57OO6)c3)O[C@H]3O[C@@]4(C)CC[C@@H]1[C@]32OO4 (stereo partly specified) | – | 2.1 | 2.7 | –
11 | C[C@@H]1CC[C@H]2[C@@H](C)C(CCOC(=O)c3cccc(C(=O)OCCC4O[C@H]5O[C@@]6(C)CC[C@H]7[C@H](C)CC[C@@H]([C@H]4C)[C@@]57OO6)c3)O[C@H]3O[C@@]4(C)CC[C@@H]1[C@]32OO4 (stereo partly specified) | 42.2 | – | – | –
12 | C[C@@H]1CC[C@H]2[C@@H](C)C(CCOC(=O)CCCC(=O)OCCC3O[C@H]4O[C@@]5(C)CC[C@H]6[C@H](C)CC[C@@H]([C@H]3C)[C@@]46OO5)O[C@H]3O[C@@]4(C)CC[C@@H]1[C@]32OO4 (stereo partly specified) | – | 1.1 | 2.4 | –
13 | C[C@@H]1CC[C@H]2[C@@H](C)C(CSCCCCCSCC3O[C@@H]4O[C@]5(C)CC[C@@H]6[C@@H](C)CC[C@H]([C@@H]3C)[C@]46OO5)O[C@H]3O[C@@]4(C)CC[C@@H]1[C@]32OO4 (stereo partly specified) | 12 | – | – | –
